Laboratory results reported in US20140038289A1, “NONADHESIVE SPHERE CELL CULTURE CONTAINER, SYSTEM, AND METHOD” (NATIONAL DEFENSE MEDICAL CENTER, priority 2012, published 2014).

Columns and labels:
Type in all cases: cell-based
[1] = tested on: human oral squamous carcinoma cell line OECM-1; assay: Combined chemo- and radiotherapy (CCRT) treatment, OECM-1 parental cells and spheres; conditions: 20 μM Cisplatin for 24 hours followed by radiotherapy, FIG. 4(C)
Procedure: (§1) Cells were seeding in 10-cm cell culture dish at a density of 1×10^6 cells/dish. For the chemosensitivity assay, cells were treated with 10 to 200 μM Cisplatin (Sigma, St Louis, Mo., U.S.A.) for 48 hours. For the radiosensitivity assay, cells were irradiated using a CyberKnife® radiosurgery system (Accuray, Sunnyvale, Calif., U.S.A.) to deliver different doses (2-10 Gy). Relative survival fraction of cells was determined by MTS assay using the CellTiter® 96 Aqueous One Solution Cell Proliferation Assay kit (Promega, Madison, Wis., U.S.A.) after 36 hours of radiation treatment. To imitate the clinical condition, a combined chemo- and radiotherapy (CCRT) treatment was administered on SAS and OECM-1 parental cells and their spheres. Please refer to FIG. 4(C), which depicts the survival (%) of SAS and OECM-1 parental cells and their spheres after Cisplatin treatment followed by radiation treatment. This assay was performed by treating cells with chemotherapy using 20 μM Cisplatin for 24 hours followed by radiotherapy. […] Please refer to FIG. 4(D), which depicts the survival (%) of SAS and OECM-1 parental cells and their spheres after radiation treatment followed by Cisplatin treatment. […]

[2] = tested on: human tongue cancer cell line SAS; assay: Chemosensitivity assay (MTS), SAS parental cells and spheres; conditions: Cisplatin doses up to 200 μM for 48 hours, FIG. 4(B)
Procedure: (§2) Cells were seeding in 10-cm cell culture dish at a density of 1×10^6 cells/dish. For the chemosensitivity assay, cells were treated with 10 to 200 μM Cisplatin (Sigma, St Louis, Mo., U.S.A.) for 48 hours. For the radiosensitivity assay, cells were irradiated using a CyberKnife® radiosurgery system (Accuray, Sunnyvale, Calif., U.S.A.) to deliver different doses (2-10 Gy). Relative survival fraction of cells was determined by MTS assay using the CellTiter® 96 Aqueous One Solution Cell Proliferation Assay kit (Promega, Madison, Wis., U.S.A.) after 36 hours of radiation treatment. Please refer to FIG. 4(A), which depicts the survival (%) of SAS and OECM-1 parental cells and their spheres after radiation treatment, and cell viability was evaluated after these cells were treated with radiation doses up to 10 Gy for 36 hours and were subject to a MTS assay. In FIG. 4(A), SAS and OECM-1 spheres were more radioresistant than their parental cells. Please refer to FIG. 4(B), which depicts the survival (%) of SAS and OECM-1 parental cells and their spheres after the Cisplatin treatment, and cell viability was evaluated after these cells were treated with Cisplatin doses up to 200 μM for 48 hours and were subject to a MTS (3-(4,5-dimethylthiazol-2-yl)-5-(3-carboxymethoxyphenyl)-2-(4-sulfophenyl)-2H-tetrazolium) assay.

[3] = tested on: human tongue cancer cell line SAS; assay: Combined chemo- and radiotherapy (CCRT) treatment, SAS parental cells and spheres; conditions: 20 μM Cisplatin for 24 hours followed by radiotherapy, FIG. 4(C)
Procedure: as §1

[4] = tested on: human oral squamous carcinoma cell line OECM-1; assay: Chemosensitivity assay (MTS), OECM-1 parental cells and spheres; conditions: Cisplatin doses up to 200 μM for 48 hours, FIG. 4(B)
Procedure: as §2

N.N.[Cl][Pt][Cl] [Cisplatin]
survival (%) after Cisplatin treatment followed by radiation treatment, vs single treatment [1]: more effective in reducing the survival rate of the parental cells and spheres compared with the single treatment | survival (%) after Cisplatin treatment, spheres vs parental cells [2]: spheres were more resistant to Cisplatin than their parental cells | survival (%) after Cisplatin treatment followed by radiation treatment, vs single treatment [3]: more effective in reducing the survival rate of the parental cells and spheres compared with the single treatment | survival (%) after Cisplatin treatment, spheres vs parental cells [4]: spheres were more resistant to Cisplatin than their parental cells
